“And” between values parts separate entries of the source, which are not always exact repeats. Equal values may be shown once.
Key:
[1] = target: T1, leukotriene receptor (guinea pig lung membranes) (Cavia porcellus, UniProt Q2NNR5); experiment: Binding of ^3 H-Leukotriene D4 to Guinea Pig Lung Membranes (RBL); details: 0.2 nM ^3 H-LTD4, 60 min, 25° C.; read-out: Concentration (M) for 50.0 % Inhibition, IC (RBL)
T1 construct: 20 mg original tissue wet weight of guinea pig lung; tissue Kuiper Rabbit Farm, Gary, IN (animals); host or cells: guinea pig lung, crude membranes
T1 sequence (Q2NNR5 1-340): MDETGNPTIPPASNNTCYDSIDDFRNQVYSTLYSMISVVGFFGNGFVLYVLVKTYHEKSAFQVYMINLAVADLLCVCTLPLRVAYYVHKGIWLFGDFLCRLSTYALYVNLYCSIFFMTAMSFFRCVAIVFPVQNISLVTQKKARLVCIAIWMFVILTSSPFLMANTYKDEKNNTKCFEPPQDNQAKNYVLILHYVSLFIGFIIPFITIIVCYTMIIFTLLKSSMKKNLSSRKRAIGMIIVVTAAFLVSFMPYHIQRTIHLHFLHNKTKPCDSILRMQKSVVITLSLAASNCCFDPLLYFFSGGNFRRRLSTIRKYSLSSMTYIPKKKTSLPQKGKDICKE
Method: Additionally, the activity, of the compounds having the Formula I of the present invention is determined by the well known leukotriene receptor binding assay that is described by R. F. Bruns, W. J. Thomsen and T. A. Pugsley in Life Sciences, 33, 645 (1983) or the Herxheimer in vivo antiallergy test described in H. Herxheimer, J. Physiol. (London), Vol. 177, p. 251 (1952).
Binding of ^3 H-Leukotriene D4 to Guinea Pig Lung Membranes (RBL)
[14,15-^3 H]leukotriene D4 (^3 H-LTD4) (25 Ci/mmol and 40 Ci/mmol) is purchased from New England Nuclear. Unlabeled LTC4 is a gift of Ono Pharmaceuticals (Japan). LTC4, LTD4, and LTE4 are purchased as methyl esters from Paesel GmbH (Frankfurt, W. Germany). Concentrations of the Paesel leukotrienes are calculated from their absorbance at 280 nm. Leukotriene esters are saponified overnight under N2 in 3.3% potassium carbonate at room temperature. Tritiated leukotrienes are stored as received from New England Nuclear at -20° C. Ono LTC4 (5 μg/ml) is stored at -60° C. in phosphate buffer pH 6.8. Saponified Paesel leukotrienes are stored at -60° C. in 3.3% potassium carbonate (pH 9.0-9.5). Aliquots of leukotrienes are taken from stock solutions immediately after thawing, after which the stock solutions are immediately refrozen. 2-Amino-2-(hydroxymethyl)-1,3-propanediol (Tris) is Sigma pH 7.7 pre-set crystals, and dimethylsulfoxide is Aldrich Gold Label.
Preparation of crude lung membranes
Two pairs of lungs (1.3 g) from freshly sacrificed 300 g male guinea pigs (older animals gave substantially lower binding) from Kuiper Rabbit Farm, Gary, IN are disrupted with a Polytron PT 10 (setting 4) for 30 seconds in 20 ml ice-cold 50 mM Tris adjusted with HCl to pH 7.7 at 25° C. (Tris buffer), filtered through a single layer of gauze to remove connective tissue, and centrifuged at 50,000 xg for ten min. The pellet is resuspended by homogenization with a Polytron in 20 ml Tris buffer, centrifuged at 50,000 xg for ten min., resuspended, incubated at 37° C. for 30 minutes, and centrifuged again. The final pellet is resuspended in Tris buffer and either used fresh or stored at -70° C.
All incubations are in triplicate for 60 minutes at 25° C. in 12×75 mm polystyrene tubes containing 1 ml Tris buffer with 20 mg original tissue wet weight of guinea pig lung nmembranes, 0.2 nM ^3 H-LTD4 (6,000-11,000 cpm), 10 mM MgCl2, and 1% dimethylsulfoxide Leukotrienes are diluted in Tris buffer. All other test compounds dissolved at 10 mM in dimethylsulfoxide on the same day as the experiment, and diluted in dimethylsulfoxide to 100× the final incubation concentration. Control incubations receive an equal volume (10 μl) of dimethylsulfoxide; the resulting concentration of dimethylsulfoxide had no effect on binding. ^3 H-LTD4 is diluted to 2 nM in Tris buffer. The membrane suspension (20 mg/0.89 ml) contains sufficient MgCl2 to give 10 mM final concentration in the incubation. […] All additions are performed at 0° C. Immediately after the last addition, the incubation is initiated by agitating the rack of tubes on a vortex mixer and warming to 25° C. in a water bath. Tubes are vortexed at least once more during the incubation to ensure that the membranes remained suspended. Incubations are terminated after 60 minutes by filtering under reduced pressure through 25 mm Whatman GF/B filters followed by rapid washing three times with 4 ml of ice-cold Tris buffer. Filters are added to scintillation vials with 8 ml Formula 947 (New England Nuclear), left overnight, shaken, and the radioactivity counted in a scintillation counter (efficiency 40%). Nonspecific binding, defined as binding of ^3 H-LTD4 in the presence of 100 nM LTC4, is 300-500 cpm for all lots of ^3 H-LTD4. Binding to the filters in the absence of tissue is about 100 cpm, and is not affected by unlabeled LTC4. Specific binding, defined as total binding minus nonspecific binding, varied considerably from lot to lot of ^3 H-LTD4. […]

[2] = target: Human Leukocyte Lipoxygenase; experiment: Human Leukocyte Lipoxygenase Assay (LDA-H); format: biochemical; details: for IC50: acetone-pentane powder enzyme, 234 nm, 24° C., 5 min preincubation, read-out: Concentration (M) for 50.0 % Inhibition, IC (LDAH)
Method: Human Leukocyte Lipoxygenase Assay (LDA-H)
Whole blood is collected from normal volunteers and spun in a refrigerated centrifuge for four minutes at 1°-6° C. at 3800 g. The buffy coat is manually separated and washed twice with chilled 0.83% NH4 Cl and centrifuged at 1000 RPM for ten minutes at 4° C. The white cell is suspended in culture media-EMEM supplemented with 6% Agamma human serum, tricine buffer, and neomycin and recentrifuged at 1000 g to yield a pellet containing the leukocytes used for the preparation of the acetone pentane powder.
The acetone-pentane powder is prepared utilizing a modification of the procedure reported for human platelet lipoxygenase. See Siegel, et al, Arachidonate Metabolism via Lipoxygenase and 12-L-hydroperoxy-5 Eicosatetraenoic Acid Peroxidase Sensitive to Antiinflammatory Drugs, Proc. Natl. Acad. Sci., USA 77: 308, 1980 and D. P. Wallach and V. R. Brown, A Novel Preparation of Human Platlet Lipoxygenase, Biochem. Biophys. Acta. 663: 361, 1981. Buffy coat prepared above is resuspended in 5-7 volumes of cold 0.1M Tris buffer, pH 7.4 containing 0.154M NaCl. The suspension is centrifuged at 13,300 g for ten minutes at 4° C. The resultant pellet is retained, resuspended in five volumes of cold acetone, recentrifuged at 13,300 g and resuspended in five volumes of cold pentane. The pentane suspension is centrifuged for ten minutes at 13,300 g to give a pellet which is dried in the cold under vacuum with periodic pulverization. The dry powder is stable for several weeks when stored at -80° C.
Enzyme stock solution is prepared in the following manner. About 15 mg of the acetone-pentane powder is suspended in 4 ml of cold tris buffer (0.1M, pH 7.4), allowed to stand for five minutes, and homogenized thoroughly. The homogenate is sonicated three times for 15 seconds each time, diluted to 7 ml with cold tris buffer (0.1M, pH 7.4), and centrifuged at 4° C. for 60 minutes at 13,300 g. the supernatent is retained and diluted to a total of 10 ml with cold tris buffer (0.1M, pH 7.4) to give the stock enzyme solution. Additional dilutions of 2-50 fold are done as necessary to locate optimal enzyme reaction rate in the assay described below.
Substrate solution is prepared at 100 μM or 1.0 μM concentrations of arachidonic acid or linoleic acid in 0.1M tris buffer, pH 9.0 containing 20% ethanol.
The enzyme reaction is followed spectrophotometrically by the appearance of a conjugated diene product at 234 nm. The reaction is monitored at 24° C. using a Gilford Model 2600 spectrophotometer. […] The effects of inhibitors on the reaction are compared with control reactions run under indentical conditions. Routinely, each compounds of the present invention is incubated with the enzyme for five minutes prior to addition of substrate to initiate the reaction. Inhibition expressed as IC50 as molar concentration of the compound required to reduce reaction rate to 50% control.

Compound | IC50 [1] | IC50 [2] [M] | % Inhibition (LDAH) ([2]; Concentration 8.00 E -5 M) [%] | % Inhibition (LDAH) ([2]; Concentration 2.50 E -5 M) [%]
O=C(Nc1ccc(CCc2ccc(Cl)c(Cl)c2)cc1)C1CS(=O)(=O)c2ccccc2C1=O (centres unmarked) [Example 11, N-[4-[2-(3,4-Dichlorophenyl)ethyl]phenyl]-3,4-dihydro-4-oxo-2H-1-benzothiopyran-3-carboxamide, 1,1-dioxide] | 3.64e-06 M | 1.1e-06 | – | –
O=C(Nc1ccc(CCc2cc(O)cc(O)c2)cc1)C1=C(O)c2ccccc2S(=O)(=O)C1 [Example 33, N-[4-[2-(3,5-Dihydroxyphenyl)ethyl]phenyl]-4-hydroxy-2H-1-benzothiopyran-3-carboxamide, 1,1-dioxide] | 8.2e-05 M | 2.5e-05 | – | –
COc1ccccc1CCc1ccc(NC(=O)C2=C(O)c3ccccc3S(=O)(=O)C2)cc1 [Example 37, 4-Hydroxy-N-8 4-[2-(2-methoxyphenyl)ethyl]phenyl-2H-1-benzothiopyran-3-carboxamide, 1,1-dioxide] | 1.9e-05 M | – | 0.0 | –
O=C(Nc1ccc(CCc2ccccc2O)cc1)C1=C(O)c2ccccc2S(=O)(=O)C1 [Example 38] | 6.68e-06 M | – | – | 0.0
COc1cccc(CCc2ccc(NC(=O)C3CS(=O)(=O)c4ccccc4C3=O)cc2)c1 (centres unmarked) [Example 39] | 2.48e-05 M | 5.7e-05 | – | –
O=C(Nc1ccc(CCc2ccc(O)cc2)cc1)C1CS(=O)(=O)c2ccccc2C1=O (centres unmarked) [Example 40] | 5.6e-05 M | 8.2e-05 | – | –
Cc1ccccc1CCc1ccc(NC(=O)C2=C(O)c3ccccc3S(=O)(=O)C2)cc1 [Example 43] | 2.06e-05 M | – | 0.0 | –
O=C(Nc1ccc(CCc2ccc(C(F)(F)F)cc2)cc1)C1CS(=O)(=O)c2ccccc2C1=O (centres unmarked) [Example 44] | 3.02e-06 M | – | – | 0.0
Cc1ccc(CCc2ccc(NC(=O)C3CS(=O)(=O)c4ccccc4C3=O)cc2)cc1 (centres unmarked) [Example 45] | 9.44e-06 M | – | 0.0 | –
CCOC(=O)c1ccc(CCc2ccc(NC(=O)C3CS(=O)(=O)c4ccccc4C3=O)cc2)cc1 (centres unmarked) [Example 47, 4-[2-[4-[[(3,4-Dihydro-4-oxo-2H-1-benzothiopyran-3-yl)carbonyl]amino]pheyl]ethyl]benzoic acid, ethyl ester, 1,1-dioxide] | 1.11e-05 M | – | 0.0 | –
CC(=O)Nc1ccc(CCc2ccc(NC(=O)C3CS(=O)(=O)c4ccccc4C3=O)cc2)cc1 (centres unmarked) [Example 49] | 0.000149 M | 3.5e-05 | – | –
CCCCCCc1ccc(NC(=O)C2CS(=O)(=O)c3ccccc3C2=O)cc1 (centres unmarked) [Example 58, N-(4-Hexylphenyl)-3,4-dihydro-4-oxo-2H-1-benzothiopyran-3-carboxamide, 1-1-dioxide] | 8.47e-06 M | – | 0.0 | –
CCCCCCCCc1ccc(NC(=O)C2CS(=O)(=O)c3ccccc3C2=O)cc1 (centres unmarked) [Example 59, 3,4-Dihydro-N-(4-octylphenyl)-4-oxo-2H-1-benzothiopyran-3-carboxamide, 1,1-dioxide] | 7.29e-06 M | – | – | 0.0
CCCCCCCCCCCCc1ccc(NC(=O)C2CS(=O)(=O)c3ccccc3C2=O)cc1 (centres unmarked) [Example 61, N-(4-Dodecylphenyl)-3,4-dihydro-4-oxo-2H-1-benzothiopyran-3-carboxamide, 1,1-dioxide] | 2e-05 M and 2.05e-05 M | 1e-06 | – | –
O=C(Nc1ccc(CCc2cc(Cl)cc(Cl)c2)cc1)C1=C(O)c2ccccc2S(=O)(=O)C1 [Example 71, 2H-1-Benzothiopyran-3-carboxamide, N-[4-[2-(3,5-dichlorophenyl)ethyl]phenyl]-4-hydroxy-, 1,1-dioxide] | 7.46e-06 M | 0.0002 | – | –
O=C(Nc1ccc(CCc2ccc(Cl)cc2Cl)cc1)C1=C(O)c2ccccc2S(=O)(=O)C1 [Example 72, 2H-1-Benzothiopyran-3-carboxamide, N-[4-[2-(2,4-dichlorophenyl)ethyl]phenyl]-4-hydroxy-1,1-dioxide] | 3.5e-06 M | 2.6e-06 | – | –
O=C(Nc1ccc(CCc2cccc(O)c2)cc1)C1CS(=O)(=O)c2ccccc2C1=O (centres unmarked) [Example 82] | 3.95e-05 M | – | 0.0 | –
O=C(Nc1ccc(CCc2ccc(O)c(O)c2)cc1)C(=O)c1sc2ccccc2c1O [Example 134, N-[4-[2-(3,4-Dihydroxyphenyl)ethyl]phenyl]-3-hydroxy-α-oxo-benzo[b]thiophene-2-acetamide] | 6.88e-05 M | 8.2e-06 | – | –
O=C(Nc1ccc(CCc2ccc(O)c(O)c2)cc1)C(=O)c1sc2ccc(Cl)cc2c1O [Example 138, Benzo[b]thiophene-2-acetamide, 5-chloro-N-[4-[2-(3,4-dihydroxyphenyl)ethyl]phenyl]-3-hydroxy-α-oxo] | 0.000113 M | 3.3e-05 | – | –

Source: patent US4868195A, “Novel enolamides, pharmaceutical compositions and methods of use thereof for activity as modulators of the arachidonic acid cascade” (Warner-Lambert Company, priority 1988, dated 1989)
